Data reported in US20250375406A1, “TREATMENT OF NON-ALCOHOLIC STEATOHEPATITIS AND NON-ALCOHOLIC FATTY LIVER DISEASE” (VEROSCIENCE LLC, priority 2022, published 2025).

Assays:
NASH Mice = test: Treatment of NASH mice (high fat high fructose diet) with bromocriptine citrate plus pantethine with or without curcumin, Study 1; format: in vivo; settings: vehicle value assigned 1.0 (maximum score); 6 weeks treatment
Method: The curcumin-phosphatidylcholine mixture is stirred until clear while being heated to between 50° C. to 60C. Optionally, add up to 10 ml of water and stir until solution is homogeneous)) (100 mg/kg). […] After 6 weeks on the test diet and treatment, animals were sacrificed for analyses of body weight, body fat, blood glucose, and liver physiology.

NASH = test: L-DOPA plus pantethine with or without curcumin in high fat high fructose diet mice, Study 2 (Example 4); format: in vivo; settings: vehicle value assigned 1.0 (maximum score); 3 weeks treatment
Description: After 3 weeks on the test diet, animals were sacrificed for analyses of body weight, body fat, blood glucose, and liver physiology.

Row | Structure (SMILES) | NASH propensity scale score (liver weight x body weight x body fat x liver triglyceride content x blood glucose level) (NASH Mice) | NASH propensity score (liver weight x body weight x body fat x blood glucose level) (NASH)
1 | CC(C)C[C@H]1C(=O)N2CCC[C@H]2[C@]2(O)O[C@](NC(=O)[C@@H]3C=C4c5cccc6[nH]c(Br)c(c56)C[C@H]4N(C)C3)(C(C)C)C(=O)N12 [bromocriptine, 2-bromo-α-ergocriptine] | 0.46 | 
2 | N[C@@H](Cc1ccc(O)c(O)c1)C(=O)O [L-DOPA, 3,4-dihydroxyphenylalanine] |  | 0.61
